Reference: patent US7358057B2, “QM-7 and QT-6 cells transfected with mutant cell surface expressed channel receptors and assays using the transfected cells” (Memory Pharmaceuticals Corporation, priority 2002, dated 2008)
Where two headings read alike, the source gives them in different places. Blank lines part the entries; values can stand above or below the molecule they belong to.

Tests used:
L270T mutant α7 receptor = biological target: T1, L270T mutant α7 receptor (Homo sapiens, UniProt P36544, L270T); assay: Real time, high throughput Ca++ imaging assay using FLIPR, QM-7 cells transiently transfected with L270T mutant α7; type: cell-based
T1 construct: expressed in transfected cells; host or cells: QM-7 cells (quail), transient transfection with Lipofectamine PLUS
Protocol: (§1) QM-7 cells were transiently transfected with either wild type or L 270T mutant α7 receptor with Lipofectamine PLUS reagent (Invitrogen), in 175 cm^2 flasks. Twenty four hours after the transfection, the cells were collected and re-seeded into a 96-well plate at a density of 40,000 cells/well. Twenty four hours after re-seeding, the cell were incubated with Ca^++ sensitive dye Fluo 3, washed and stimulated with the selective alpha 7 agonist GTS-21. Cellular Ca^++ signal was detected with FLIPR, quantified and plotted against the concentration of GTS-21.

wild type α7 receptor = biological target: T2, wild type α7 receptor (Homo sapiens, UniProt P36544); assay: Real time, high throughput Ca++ imaging assay using FLIPR, QM-7 cells transiently transfected with wild type α7; type: cell-based; conditions: QM-7 cells transiently transfected with wild type human α7, Fluo 3 dye, FIG. 1
T2 construct: expressed in transfected cells; host or cells: QM-7 cells (quail), transient transfection with Lipofectamine PLUS
Protocol: as §1

[1] = QM-7 cells transiently transfected with human L270T α7, Fluo 3 dye, FLIPR, FIG. 1

T1 sequence (P36544 23-502 L270T): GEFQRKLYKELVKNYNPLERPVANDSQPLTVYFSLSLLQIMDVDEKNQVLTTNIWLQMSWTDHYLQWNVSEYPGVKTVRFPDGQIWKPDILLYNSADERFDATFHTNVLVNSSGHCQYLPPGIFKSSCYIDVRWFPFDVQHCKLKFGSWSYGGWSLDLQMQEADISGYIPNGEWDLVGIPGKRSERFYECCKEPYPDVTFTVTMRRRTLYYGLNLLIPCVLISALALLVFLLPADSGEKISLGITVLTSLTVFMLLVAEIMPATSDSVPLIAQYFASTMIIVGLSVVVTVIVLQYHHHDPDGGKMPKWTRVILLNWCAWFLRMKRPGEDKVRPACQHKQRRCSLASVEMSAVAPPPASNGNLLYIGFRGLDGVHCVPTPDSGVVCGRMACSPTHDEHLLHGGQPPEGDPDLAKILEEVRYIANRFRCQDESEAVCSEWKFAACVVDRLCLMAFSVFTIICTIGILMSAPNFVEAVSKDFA
T2 sequence (P36544 23-502): as the sequence (P36544 23-502 L270T) above, with T248L counted along it

Structure (SMILES): CN1CCCC1c1cccnc1 (stereo not drawn) [nicotine]
Responsiveness of cells to agonist (Ca++ signal) (L270T mutant α7 receptor): responsive

Structure (SMILES): CCN1C[C@]2(COC(=O)c3ccccc3N3C(=O)C[C@H](C)C3=O)CC[C@H](OC)[C@@]34[C@@H]5C[C@H]6[C@H](OC)[C@@H]5[C@](O)(C[C@@H]6OC)[C@@](O)([C@@H](OC)[C@H]23)[C@@H]14 [MLA, Methyllycaconitine]
Attenuation of signals from epibatidine stimulation (L270T mutant α7 receptor): attenuated

Cellular Ca++ signal on stimulation (wild type α7 receptor): failed to give a meaningful signal
Cellular Ca++ signal on stimulation (L270T mutant α7 receptor; [1]): dose-dependent increase of Ca^++ signal
Concentration at which the Ca++ signal saturated (L270T mutant α7 receptor; [1]): 10 µM
Structure (SMILES): COc1ccc(/C=C2\CCCN=C2c2cccnc2)c(OC)c1 [GTS-21]

Structure (SMILES): Clc1ccc(C2CC3CCC2N3)cn1 (stereo not drawn) [epibatidine]
Responsiveness of cells to agonist (Ca++ signal) (L270T mutant α7 receptor; QM-7 cells transiently transfected with the mutant): responsive
